This is an account of results in patent US6337322B1, “Preventives and remedies for intestinal mucosal disorder” (Meiji Milk Products Co., Ltd., priority 1998, dated 2002).

Each structure is given as a SMILES string. Counter-ions that a name gives are not always drawn.

One series has as its system keratinocyte. The conditions noted are these: cited from earlier work.
Series [1] deals with primarily cultured liver cells. The conditions noted are these: cited from earlier work.
Series [2] is described as follows: Test Example 1: body weight of fasting rats. The class given is in vivo, rat. Particulars: 48 hours; for Weight ± standard deviation, Final: fasting rats, free ingestion. On the procedure: Six-week-old male Sprague-Dawley rats (purchased from Nippon Charles River) were employed in the test. Water and solid feed (CRF-1, product of Oriental Yeast) were freely ingested by the rats. […] The test was carried out for 48 hours. For the fasting groups, solid feed was removed in the morning of the day on which the test was initiated. During the 48 hours, solid feed, water, and an ethanolamine hydrochloride-containing aqueous solution were freely ingested by the rats in the solid feed ingestion group, the water ingestion fasting group, and the ethanolamine hydrochloride ingestion fasting group, respectively. The amount of water ingested during the 48 hours was measured, and the amount of ingested ethanolamine per rat was calculated on the basis of the amount of water (Table 2). For each group, the rats were weighed at the time of test initiation and the time of test completion, in order to obtain the average weight (Table 1). In the fasting groups, any changes in the weight of the rats that could be attributed to ethanolamine ingestion were not observed.

The test system of series [3] is villous epithelium of the duodenum. In words: Test Example 2: duodenal disorder induced by four-day fasting and intraperitoneal 5% dextrose, HE-stained tissue sections. The class given is in vivo, rat. The conditions noted are these: 250 mg/5 mL/kg orally twice a day, first to third fasting day, versus control group. As to the method: Nine-week-old CD (SD) IGS male rats were employed in the test. The rats were kept in individual fasting cages, and the day after initiation of fasting was regarded as the first fasting day. Fasting (i.e., provision of no food and no water) was carried out for four days, and on the fourth day the rats were sacrificed through […]. A 5% dextrose solution was intraperitoneally administered to each rat in an amount of 10 mL on the basis of body weight (100 g) from the first fasting day to the third fasting day, to thereby induce disorders. The rats were divided into two groups: a control group and a drug administration group. To the rats of the control group, sterile water was orally administered in an amount of 0.5 mL per 100 g of body weight twice a day, at 10:00 AM and 4:00 PM. To the rats of the drug administration group, ethanolamine hydrochloride was administered in an amount of 250 mg/5 mL/kg twice a day, at 10:00 AM and 4:00 PM. The administration was carried out from the first fasting day to the third fasting day. On the fourth fasting day, the rats were sacrificed through cervical dislocation, and the stomach and the duodenum were removed from each rat. The inside of the intestinal tract was washed with saline. Subsequently, the pylorus was ligated and the tract was also ligated at a position 4 cm from the pylorus. […]

Series [4] deals with duodenal epithelial mucosa tissue. The series is described as follows: Test Example 1: atrophy of duodenal epithelial mucosa caused by 48-hour fasting, PAS-stained tissue sections. The format is in vivo, rat. The conditions noted are these: for Density of secretion granules / Intercellular space / Size of cell / Size of nucleus: fasting rats, 48 hours. As to the method: Six-week-old male Sprague-Dawley rats (purchased from Nippon Charles River) were employed in the test. Water and solid feed (CRF-1, product of Oriental Yeast) were freely ingested by the rats. […] The test was carried out for 48 hours. For the fasting groups, solid feed was removed in the morning of the day on which the test was initiated. During the 48 hours, solid feed, water, and an ethanolamine hydrochloride-containing aqueous solution were freely ingested by the rats in the solid feed ingestion group, the water ingestion fasting group, and the ethanolamine hydrochloride ingestion fasting group, respectively. The amount of water ingested during the 48 hours was measured, and the amount of ingested ethanolamine per rat was calculated on the basis of the amount of water (Table 2). […] The small intestine was excised from each rat, and a duodenal portion (size: 1 cm in length) was removed from a position 5 cm in the direction of the anus away from the pylorus. The removed portion was fixed in phosphate buffered formalin. After 24-hour fixation, the duodenal portion was embedded in paraffin using a conventional technique, to thereby prepare a tissue section. The thus-prepared tissue sample was subjected to PAS staining, and then observed.

Where [5] appears, read: 1 μM Etn in water (6 μg/kg/day).
Where [6] appears, read: 10 μM Etn in water (34 μg/kg/day).
[7] abbreviates: 100 μM Etn in water (330 μg/kg/day).
[8] abbreviates: 1000 μM Etn in water (4500 μg/kg/day).

As for `NCCO` [ethanolamine], the “proliferation of epithelial cells” value in the series on keratinocyte was “promote proliferation”. In addition, the “proliferation of liver cells” value in series [1] (in the presence of a cell growth factor such as EGF, ethanolamine 10-100 μM) is recorded as “synergistically promoted”. Further, the proliferation-promoting activity result in series [1] (only ethanolamine added, no cell growth factor) is “not observed”. For the same molecule, in series [2] (fasting groups), the “changes in the weight of the rats that could be attributed to ethanolamine ingestion” value is listed as “not observed”. In addition, in series [3], the cellular infiltration entry was “only slight” and the “necrosis of the villous epithelium” value is “remarkably suppressed”.
As for `NCCO` [ethanolamine hydrochloride], the “Weight ± standard deviation, Final” value is reported as 208.2 ± 3.1 g in series [2] (1 μM Etn in water), 209.4 ± 7.4 g in series [2] (10 μM Etn in water), 210.4 ± 3.9 g in series [2] (100 μM Etn in water) and 213.1 ± 6.7 g in series [2] (1000 μM Etn in water). Further, the “position of nuclei in cells” value in series [4] (100 μM ingestion fasting group) is “situated centrally”. In series [4] (100 μM ingestion fasting group, compared with solid feed ingestion group), the “enlarged intercellular spaces and cell atrophy” value is given as “not observed”. Further, the cell nuclei size entry in series [4] (100 μM ingestion fasting group, compared with water and 1 or 10 μM fasting groups) is “considerably enlarged”; in series [4] (1 or 10 μM ingestion fasting groups), “reduced in size”. Besides, the “PAS staining of mucus-secreting granules in goblet cells” value in series [4] (100 μM ingestion fasting group, compared with water ingestion fasting group) is reported as “heavily stained”. Besides, the “Density of secretion granules” value in series [4] (setting [5]) is “Low”; in series [4] (setting [6]) it was “Low”; in series [4] (setting [7]) it was “High”; in series [4] (setting [8]) it was “High”. The Intercellular space entry in series [4] (setting [5]) is listed as “Large”; in series [4] (setting [6]) it was “Large”; in series [4] (setting [7]) it was “None”; in series [4] (setting [8]), “None”. Also, the Size of cell entry is on record as “Small” in series [4] (setting [5]), “Small” in series [4] (setting [6]), “Large” in series [4] (setting [7]) and “Large” in series [4] (setting [8]). The Size of nucleus result in series [4] (setting [5]) was “Small”; in series [4] (setting [6]), “Small”; in series [4] (setting [7]) it was “Large”; in series [4] (setting [8]), “Large”. For the same molecule, the “prevention and treatment of atrophy of the small intestine caused by fasting” value in series [4] (overall conclusion of Test Example 1) is “effective”.
